Measurements taken from US8802866B2, “Pyridinylimidazolone derivatives for the inhibition of PI3 kinases” (Merck Patent GmbH, priority 2009, dated 2014).

How the values were obtained:
[1] = biological target: DNA-PK protein complex (Homo sapiens, UniProt P78527); experiment: Biochemical DNA-PK assay (FlashPlate)
Experimental: The kinase assay is carried out in […] microtitre FlashPlates®, coated with streptavidin. […] The reaction is stopped by addition of 50 μl/well of 200 mM EDTA. After incubation for 30 minutes, the liquids are removed at room temperature. Each well is washed three times with 100 μl of 0.9% NaCl solution. Non-specific reaction (blank) is determined using a proprietary kinase inhibitor (10 μM). The radioactivity is measured by means of a Topcount. […] Todd Eary, J. G. Schiro, H. Huang, L. E. Burgess, E. A. Kesicki, and J. Halbrook.

[2] = biological target: PI3Kbeta (Homo sapiens, UniProt P42338); experiment: Biochemical PI3Kbeta assay (neomycin SPA, lipid phosphorylation); details: human recombinant GST-PI3K
Experimental: (§1) The efficacy of the compounds according to the invention in the inhibition of PI3K-induced lipid phosphorylation can be investigated in the following binding assay. The assay combines scintillation proximity assay (SPA) technology (Amersham) with the ability of neomycin (a polycationic antibiotic) to bind phospholipids with high affinity and specificity. […] The coating of SPA beads with neomycin allows the detection of phosphorylated lipid substrates after incubation with recombinant PI3K and radioactive ATP in the same well by trapping the radioactive phospholipids by the SPA beads owing to their specific binding to neomycin. […] After incubation at room temperature for 120 minutes with gentle stirring, the reaction was stopped by addition of 200 μl of a solution comprising 250 μg of neomycin-coated PVT-SPA beads, ATP 60 mM and EDTA 6.2 mM in PBS. The assay is incubated at room temperature for a further 60 minutes with gentle stirring in order to enable binding of the phospholipids to the neomycin-SPA beads. After precipitation of the neomycin-coated PVT-SPA beads over 5 minutes at 1500×g, radioactive Ptdlns(3)P is quantified by scintillation counting in a Wallac Micro-Beta™ plate counter.

[3] = test system: PI3K-dependent phosphorylation of PKB at Serin 473 in PC3 cells; experiment: Cellular PI3K assay (P-S473-PKB Luminex assay in PC3 cells); type: cell-based; details: Homo sapiens, PC-3, 0.5 h; PC3 cells, 30 min, serum-free, P-S473-PKB; read-out: IC50 (cell)
Experimental: The cellular assay for determination of the P-S473-PKB level is carried out as a Luminex assay in 96-well format in PC3 cells.
PC3 cells are sown out with 20,000 cells per well in 100 μl medium (45% […]/45% Ham's F12/10% FCS) and incubated on the following day for 30 min with a serial dilution of the test substance (7 concentrations) under serum-free conditions. The cells are subsequently lysed using 90 μl of lysis buffer (20 mM Tris/HCl pH 8.0, 150 mM NaCl, 1% NP40, 10% glycerol, 1% phosphatase inhibitor I, 1% phosphatase inhibitor II, 0.1% protease inhibitor cocktail III, 0.01% benzonase) per well, and the lysates are separated off from insoluble cell constituents by means of centrifugation through a 96-well filter plate (0.65 μm). The lysates are incubated overnight at 4° C. with shaking with Luminex beads to which an anti-total PKB antibody is coupled. The detection is carried out on the following day by addition of a P-S473-PKB antibody and a species-specific PE-labelled secondary antibody. The detection of P-S473-PKB is carried out by measurement in a Luminex100 instrument by determination of 100 events per cavity in a measurement time of 60 sec.

[4] = biological target: PI3Kalpha (Homo sapiens, UniProt P42336); experiment: Biochemical PI3Kalpha assay (neomycin SPA, lipid phosphorylation); details: human recombinant GST-PI3K
Experimental: as §1

[5] = biological target: recombinant PI3Kalpha (shortened form of the catalytic subunit) (Homo sapiens, UniProt P42336); experiment: BIACORE PI3K binding assay (SPR); details: 25° C.
Experimental: SPR measurements of the binding affinities and binding kinetics on PI3Kalpha surfaces with the aid of Biacore systems. The experiments are carried out on a Biacore S51 “Compound Characterization” or a Biacore T100 instrument utilising the default application “Kinetics/Affinity” Experimental conditions: recombinant PI3Kalpha (shortened form of the catalytic subunit, missing N terminal from about 100 to 150 aa, Mw about 110 kDa, prepared by Proteros Biostructures GmbH) is immobilised on Biacore CM5 chips (25° C., flow rate: 10 μl/min, utilising amine coupling at pH 7.40—Biacore Standard protocol). PI3Kalpha is employed in concentrations between 10 and 25 μg/ml. Depending on the duration of the injection time, immobilisation levels from 1700 to 11000 RU are achieved. The substances to be measured are added in the form of a titration series. The substance concentration is doubled for each subsequent injection. 10 different substance concentrations which cover a 500-fold dilution range are usually injected. […] Kinetic titration experiments are carried out at 25° C. with a flow rate of 30 μl/min, the sample contact time is 180 s, and the dissociation time is 240 s in a running buffer (20 mM HEPES pH7.40, 150 mM NaCl, 5 mM MgCl2, 1 mM DTT, 0.1 mM EDTA, 0.05% Tween 20) comprising 2% of DMSO. Buffer injections (as double references) identical to the sample injections are carried out in each case at the beginning of a continuous series. Solvent correction cycles (eight correction points, 1.4%-2.8% DMSO) are carried out at equal intervals. In order to condition the surface, at least five start-up cycles (buffer injections) are carried out. Data points are collected with a sample rate of 10 Hz. Surface regeneration is carried out after each measurement cycle, apart from after the solvent correction runs. For this purpose, two times 100 mM NaHCO3 pH 8.60 are injected for 30 sec. Data sets are processed and analysed using the Biacore S51 Evaluation software, version 1.2.1, or Biacore T100 Evaluation, version 2.0. Solvent-corrected and double-referenced association and dissociation phase data are adapted to a simple 1:1 interaction model with mass transport limitations.

Chain of PI3Kalpha (P42336 whole entry): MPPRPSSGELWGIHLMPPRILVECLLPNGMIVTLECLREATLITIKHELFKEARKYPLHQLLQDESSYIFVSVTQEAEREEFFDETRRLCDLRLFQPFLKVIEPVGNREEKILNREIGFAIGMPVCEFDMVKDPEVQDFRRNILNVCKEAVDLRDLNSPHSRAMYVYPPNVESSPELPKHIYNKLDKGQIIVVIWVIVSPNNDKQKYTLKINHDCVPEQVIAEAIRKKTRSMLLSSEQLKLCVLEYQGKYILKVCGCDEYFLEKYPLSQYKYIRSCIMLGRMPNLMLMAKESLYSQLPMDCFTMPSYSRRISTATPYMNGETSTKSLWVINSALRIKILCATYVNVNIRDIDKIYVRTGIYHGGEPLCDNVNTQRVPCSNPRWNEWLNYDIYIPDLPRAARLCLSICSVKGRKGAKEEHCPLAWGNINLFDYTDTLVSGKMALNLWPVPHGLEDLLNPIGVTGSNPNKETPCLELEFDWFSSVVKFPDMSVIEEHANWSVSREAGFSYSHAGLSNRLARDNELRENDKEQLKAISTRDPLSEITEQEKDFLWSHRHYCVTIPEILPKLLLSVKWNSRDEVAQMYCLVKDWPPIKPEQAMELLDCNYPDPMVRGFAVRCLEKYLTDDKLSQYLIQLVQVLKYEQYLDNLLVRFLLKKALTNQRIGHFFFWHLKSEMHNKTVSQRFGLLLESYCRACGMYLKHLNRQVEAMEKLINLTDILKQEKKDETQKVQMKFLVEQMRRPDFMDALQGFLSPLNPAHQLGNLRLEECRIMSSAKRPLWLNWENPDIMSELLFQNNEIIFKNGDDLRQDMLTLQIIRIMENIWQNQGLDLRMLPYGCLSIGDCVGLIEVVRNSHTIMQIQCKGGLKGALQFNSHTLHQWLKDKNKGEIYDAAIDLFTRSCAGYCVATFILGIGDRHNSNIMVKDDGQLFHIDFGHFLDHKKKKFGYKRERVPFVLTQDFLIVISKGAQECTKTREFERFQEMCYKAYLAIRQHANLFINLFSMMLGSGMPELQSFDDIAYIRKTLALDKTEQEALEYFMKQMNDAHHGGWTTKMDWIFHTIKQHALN
Chain of PI3Kalpha (P27986 whole entry partner): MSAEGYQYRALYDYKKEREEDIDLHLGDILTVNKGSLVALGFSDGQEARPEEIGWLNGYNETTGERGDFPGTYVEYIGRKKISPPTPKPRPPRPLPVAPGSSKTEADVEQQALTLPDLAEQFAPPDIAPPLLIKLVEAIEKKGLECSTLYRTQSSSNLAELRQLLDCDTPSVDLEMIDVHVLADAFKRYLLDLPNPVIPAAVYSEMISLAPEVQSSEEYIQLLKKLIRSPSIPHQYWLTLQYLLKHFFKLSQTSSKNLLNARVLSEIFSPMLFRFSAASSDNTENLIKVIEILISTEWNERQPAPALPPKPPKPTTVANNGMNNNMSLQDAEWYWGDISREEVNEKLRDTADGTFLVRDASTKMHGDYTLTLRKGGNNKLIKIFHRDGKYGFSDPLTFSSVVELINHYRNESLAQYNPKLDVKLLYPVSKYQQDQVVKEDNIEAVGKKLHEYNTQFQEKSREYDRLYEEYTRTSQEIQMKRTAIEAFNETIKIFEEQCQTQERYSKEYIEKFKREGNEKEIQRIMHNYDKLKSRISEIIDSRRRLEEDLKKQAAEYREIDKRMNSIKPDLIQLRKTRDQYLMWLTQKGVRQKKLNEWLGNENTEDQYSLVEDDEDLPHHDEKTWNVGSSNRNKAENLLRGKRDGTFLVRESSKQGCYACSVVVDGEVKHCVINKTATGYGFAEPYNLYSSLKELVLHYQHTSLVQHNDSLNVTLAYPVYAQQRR
Chain of PI3Kbeta (P42338 whole entry): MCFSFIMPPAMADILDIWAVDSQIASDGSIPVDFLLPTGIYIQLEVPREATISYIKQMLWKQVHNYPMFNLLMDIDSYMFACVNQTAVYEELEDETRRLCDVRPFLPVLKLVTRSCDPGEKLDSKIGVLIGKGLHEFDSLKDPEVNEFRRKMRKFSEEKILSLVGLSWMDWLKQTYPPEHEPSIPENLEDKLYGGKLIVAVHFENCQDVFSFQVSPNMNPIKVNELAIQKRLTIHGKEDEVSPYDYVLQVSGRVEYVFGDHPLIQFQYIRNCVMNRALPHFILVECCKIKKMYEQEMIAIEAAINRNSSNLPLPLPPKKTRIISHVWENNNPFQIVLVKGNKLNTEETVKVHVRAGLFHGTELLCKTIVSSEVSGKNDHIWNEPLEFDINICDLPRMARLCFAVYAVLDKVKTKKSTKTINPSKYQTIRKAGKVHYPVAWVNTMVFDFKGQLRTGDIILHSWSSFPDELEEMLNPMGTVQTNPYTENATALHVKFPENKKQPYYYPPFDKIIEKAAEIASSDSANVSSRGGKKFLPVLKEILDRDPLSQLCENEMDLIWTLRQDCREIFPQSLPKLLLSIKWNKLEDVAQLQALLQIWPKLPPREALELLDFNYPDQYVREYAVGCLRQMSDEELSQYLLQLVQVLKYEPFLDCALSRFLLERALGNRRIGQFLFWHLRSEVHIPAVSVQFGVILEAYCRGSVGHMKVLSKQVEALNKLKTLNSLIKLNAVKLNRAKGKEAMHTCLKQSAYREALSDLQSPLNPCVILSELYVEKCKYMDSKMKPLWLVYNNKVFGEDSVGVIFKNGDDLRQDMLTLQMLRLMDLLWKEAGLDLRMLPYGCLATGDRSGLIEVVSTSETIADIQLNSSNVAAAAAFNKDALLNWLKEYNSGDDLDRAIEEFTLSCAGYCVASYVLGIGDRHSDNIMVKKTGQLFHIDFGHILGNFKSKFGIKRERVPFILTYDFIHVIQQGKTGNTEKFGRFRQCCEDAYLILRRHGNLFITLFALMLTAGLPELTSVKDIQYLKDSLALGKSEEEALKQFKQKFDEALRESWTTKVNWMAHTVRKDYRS
Chain of PI3Kbeta (P27986 whole entry partner): as the sequence (P27986 whole entry partner) above
Chain of recombinant PI3Kalpha (shortened form of the catalytic subunit) (P42336 151-1068 limits assumed): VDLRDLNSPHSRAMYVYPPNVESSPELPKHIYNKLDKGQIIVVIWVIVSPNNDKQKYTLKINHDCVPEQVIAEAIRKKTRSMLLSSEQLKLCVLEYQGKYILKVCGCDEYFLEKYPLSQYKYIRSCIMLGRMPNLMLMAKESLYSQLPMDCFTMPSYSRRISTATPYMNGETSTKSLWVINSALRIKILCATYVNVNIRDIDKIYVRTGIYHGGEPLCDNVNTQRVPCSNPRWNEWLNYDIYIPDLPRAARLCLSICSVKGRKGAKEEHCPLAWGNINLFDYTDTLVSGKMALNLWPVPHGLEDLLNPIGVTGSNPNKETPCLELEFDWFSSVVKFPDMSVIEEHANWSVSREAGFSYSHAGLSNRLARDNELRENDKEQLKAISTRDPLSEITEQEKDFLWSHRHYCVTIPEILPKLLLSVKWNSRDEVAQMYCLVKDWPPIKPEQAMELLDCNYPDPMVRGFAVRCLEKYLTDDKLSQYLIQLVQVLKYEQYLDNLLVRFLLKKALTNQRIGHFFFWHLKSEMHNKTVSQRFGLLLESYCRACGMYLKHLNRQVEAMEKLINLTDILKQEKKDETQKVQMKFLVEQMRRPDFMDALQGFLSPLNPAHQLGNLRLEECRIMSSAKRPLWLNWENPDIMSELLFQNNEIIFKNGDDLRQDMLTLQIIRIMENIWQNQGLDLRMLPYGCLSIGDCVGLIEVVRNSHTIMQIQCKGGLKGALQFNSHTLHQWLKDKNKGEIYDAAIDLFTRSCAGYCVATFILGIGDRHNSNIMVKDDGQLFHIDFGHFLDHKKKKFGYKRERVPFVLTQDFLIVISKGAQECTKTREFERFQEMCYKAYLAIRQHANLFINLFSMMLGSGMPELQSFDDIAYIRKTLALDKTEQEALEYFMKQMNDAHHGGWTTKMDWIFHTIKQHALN

| Compound | IC50 [1] [nM] | IC50 [2] [nM] | IC50 [3] [nM] | IC50 [4] [nM] | Kd [5] [nM] |
| --- | --- | --- | --- | --- | --- |
| CN1CCN(c2ccc(-n3c(-c4cc(-c5ccc6[nH]ccc6c5)ccn4)cn(C)c3=O)cc2C(F)(F)F)CC1 [Example A102, 4-[4-(1H-Indol-5-yl)pyridin-2-yl]-1-methyl-3-[4-(4-methylpiperazin-1-yl)-3-trifluoromethylphenyl]-1,3-dihydroimidazol-2-one] | 100 to 10000 |  | 100 to 10000 | 100 to 10000 |  |
| Cn1cc(-c2cc(-c3cnc4[nH]ccc4n3)ccn2)n(-c2ccc(C(C)(C)C#N)cc2)c1=O [Example A78, 2-Methyl-2-(4-{3-methyl-2-oxo-5-[4-(5H-pyrrolo[2,3-b]pyrazin-2-yl)pyridin-2-yl]-2,3-dihydroimidazol-1-yl}phenyl)propionitrile] | 100 to 10000 | 100 to 10000 | 100 to 10000 | 100 to 10000 |  |
| CC(=O)Nc1ncc(-c2ccnc(-c3cn(C)c(=O)n3-c3cccc(C#N)c3)c2)cc1C(F)(F)F [Example A68, N-{2′-[3-(3-Cyanophenyl)-1-methyl-2-oxo-2,3-dihydro-1H-imidazol-4-yl]-5-trifluoromethyl-[3,4′]bipyridinyl-6-yl}acetamide] | 100 to 10000 | > 10000 | 100 to 10000 | 100 to 10000 |  |
| CNCc1ccc(-c2ccnc(-c3cn(C)c(=O)n3-c3ccc(C(C)(C)C#N)cc3)c2)cn1 [Example A95, 2-Methyl-2-{4-[3-methyl-5-(6-methylaminomethyl-[3,4′]bipyridinyl-2′-yl)-2-oxo-2,3-dihydroimidazol-1-yl]phenyl}propionitrile] | 100 to 10000 | > 10000 | > 10000 | > 10000 |  |
| COc1ccc(Cn2c(-c3cc(-c4cnc(NC(C)=O)c(C(F)(F)F)c4)ccn3)cn(C)c2=O)cc1 [Example A111, N-{2′-[3-(4-Methoxybenzyl)-1-methyl-2-oxo-2,3-dihydro-1H-imidazol-4-yl]-5-trifluoromethyl-[3,4′]bipyridinyl-6-yl}acetamide] | > 10000 | > 10000 | > 10000 | > 10000 |  |
| Cn1cc(-c2cncc(-c3cnc4ccccc4c3)c2)n(-c2ccc(C(C)(C)C#N)cc2)c1=O [Example A2, 2-Methyl-2-{4-[3-methyl-2-oxo-5-(5-quinolin-3-ylpyridin-3-yl)-2,3-dihydroimidazol-1-yl]phenyl}propionitrile] | 100 to 10000 |  |  |  |  |
| Cn1cc(-c2cc(-c3cnc4[nH]ccc4c3)ccn2)n(-c2ccc(N3CCN(Cc4cccnc4)CC3)c(C(F)(F)F)c2)c1=O [Example A106, 1-Methyl-3-[4-(4-pyridin-3-ylmethylpiperazin-1-yl)-3-trifluoromethylphenyl]-4-[4-(1H-pyrrolo[2,3-b]pyridin-5-yl)pyridin-2-yl]-1,3-dihydroimidazol-2-one] | 100 to 10000 |  | 0.1 to 100 |  |  |
| CN1CCN(c2ccc(-n3c(-c4cc(-c5cnc(N)c(C(F)(F)F)c5)ccn4)cn(C)c3=O)cc2C#N)CC1 [Example A82, 5-[5-(6-Amino-5-trifluoromethyl-[3,4′]bipyridinyl-2′-yl)-3-methyl-2-oxo-2,3-dihydroimidazol-1-yl]-2-(4-methylpiperazin-1-yl)benzonitrile] | 0.1 to 100 | 100 to 10000 | 100 to 10000 | 100 to 10000 |  |
| Cn1cc(-c2cc(-c3c[nH]c4ncccc34)ccn2)n(-c2ccc(C(C)(C)C#N)cc2)c1=O [Example A100, 2-Methyl-2-(4-{3-methyl-2-oxo-5-[4-(1H-pyrrolo[2,3-b]pyridin-3-yl)pyridin-2-yl]-2,3-dihydroimidazol-1-yl}phenyl)propionitrile] | 100 to 10000 | 100 to 10000 | 100 to 10000 | 100 to 10000 |  |
| CN1CCN(c2ccc(-n3c(-c4cc(-c5cnc(N)c(C(F)(F)F)c5)ccn4)cn(C)c3=O)cc2C(F)(F)F)CC1 [Example A103, 4-(6-Amino-5-trifluoromethyl-[3,4′]bipyridinyl-2′-yl)-1-methyl-3-[4-(4-methyl-piperazin-1-yl)-3-trifluoromethylphenyl]-1,3-dihydroimidazol-2-one] | 100 to 10000 | 100 to 10000 | 100 to 10000 | 100 to 10000 |  |
| Cn1cc(-c2cc(-c3cnc(N)c(C#N)n3)ccn2)n(-c2ccc(C(C)(C)C#N)cc2)c1=O [Example A70, 3-Amino-6-(2-{3-[4-(cyanodimethylmethyl)phenyl]-1-methyl-2-oxo-2,3-dihydro-1H-imidazol-4-yl}pyridin-4-yl)pyrazine-2-carbonitrile] | 100 to 10000 | 100 to 10000 | 100 to 10000 | 100 to 10000 |  |

Now from value to compound:

| IC50 [1] [nM] | IC50 [2] [nM] | IC50 [3] [nM] | IC50 [4] [nM] | Kd [5] [nM] | Compound |
| --- | --- | --- | --- | --- | --- |
| 0.1 to 100 | 100 to 10000 | > 10000 | 100 to 10000 |  | Cn1cc(-c2cc(-c3cnc4nccnc4c3)ccn2)n(-c2ccc(C(C)(C)C#N)cc2)c1=O [Example A81, 2-Methyl-2-{4-[3-methyl-2-oxo-5-(4-pyrido[2,3-b]pyrazin-7-ylpyridin-2-yl)-2,3-dihydroimidazol-1-yl]phenyl}propionitrile] |
| 0.1 to 100 | > 10000 | 100 to 10000 | > 10000 | 100 to 10000 | COc1ccc(Cn2c(-c3cc(-c4cnc5[nH]ccc5c4)ccn3)cn(C)c2=O)cc1 [Example A108, 3-(4-Methoxybenzyl)-1-methyl-4-[4-(1H-pyrrolo[2,3-b]pyridin-5-yl)pyridin-2-yl]-1,3-dihydroimidazol-2-one] |
| 0.1 to 100 |  | 100 to 10000 |  |  | Cn1cc(-c2cc(-c3cc(F)c(N)c(C(F)(F)F)c3)ccn2)n(-c2ccc(C(C)(C)C#N)cc2)c1=O [Example A107, 2-(4-{5-[4-(4-Amino-3-fluoro-5-trifluoromethylphenyl)pyridin-2-yl]-3-methyl-2-oxo-2,3-dihydroimidazol-1-yl}phenyl)-2-methylpropionitrile] |
| 0.1 to 100 |  | 100 to 10000 | 100 to 10000 |  | Cc1cc2cc(-c3ccnc(-c4cn(C)c(=O)n4-c4cccc(Oc5ccccc5)c4)c3)cnc2[nH]1 [Example A104, 1-Methyl-4-[4-(2-methyl-1H-pyrrolo[2,3-b]pyridin-5-yl)pyridin-2-yl]-3-(3-phenoxy-phenyl)-1,3-dihydroimidazol-2-one] |
| 0.1 to 100 | 100 to 10000 | 100 to 10000 | 100 to 10000 |  | Cn1cc(-c2cc(-c3cnc4c(ccn4C)c3)ccn2)n(-c2ccc(C(C)(C)C#N)cc2)c1=O [Example A54, 2-Methyl-2-(4-{3-methyl-5-[4-(1-methyl-1H-pyrrolo[2,3-b]pyridin-5-yl)pyridin-2-yl]-2-oxo-2,3-dihydroimidazol-1-yl}phenyl)propionitrile] |
